Assay results as given in patent publication US6869960B2, “N-substituted spiropiperidine compounds as ligands for ORL-1 receptor” (Pfizer Inc., priority 2002, dated 2005).

Biological target: T1, human ORL1 receptor (Homo sapiens, UniProt P41146)
T1 construct: expressed in transfected cells; host or cells: HEK-293 cell membranes
Test: ORL1 receptor functional assay ([35S]GTPγS binding, nociceptin stimulated)
Assay type: biochemical
Conditions: at 10 nM nociceptin stimulation; human ORL1 receptor transfected HEK-293 cell membranes
Procedure: IC50(ORL1-receptors)nM/IC50(mu-receptors)nM<1.0 ORL1 Receptor Functional Assay • The human ORL1 receptor transfected HEK-293 cell membranes are incubated with 400 pM [^35S]GTPγS, 10 or 50 nM nociceptin and various concentrations of test compounds in assay buffer (20 mM HEPES, 100 mM NaCl, 5 mM MgCl2, 1 mM EDTA, […], 1 mM DTT, pH7.4) containing 1.5 mg of wheat germ agglutinin-coated SPA beads for 60 or 90 min at 25° C. in a final volume of 200 μl. Basal binding is assessed in the absence of nociceptin and non-specific binding is defined by the addition of unlabelled […]. Membrane-bound radioactivity is detected by a Liquid Scintillation Counter. […] Analgesic Tests Tail Flick Test in Mice • The latency time to withdrawal f the tail from radiant heat stimulation is recorded before and after administration of test compounds. Cut-off time is set to 8 sec. Acetic Acid Writhing Test in Mice • Acetic acid saline solution of 0.7% (v/v) is injected intraperitoneally (0.16 ml/10 g body weight) to mice. Test compounds are administered before acetic acid injection. As soon as acetic acid injection, animals are placed in a 1 liter beaker and writhing is recorded for 15 min. Formalin Licking Test in Mice • Formalin-induced hind paw licking is initiated by a 20 micro liters subcutaneous injection of a 2% formaline solution into a hind paw of mice. […]

T1 sequence (P41146 whole entry): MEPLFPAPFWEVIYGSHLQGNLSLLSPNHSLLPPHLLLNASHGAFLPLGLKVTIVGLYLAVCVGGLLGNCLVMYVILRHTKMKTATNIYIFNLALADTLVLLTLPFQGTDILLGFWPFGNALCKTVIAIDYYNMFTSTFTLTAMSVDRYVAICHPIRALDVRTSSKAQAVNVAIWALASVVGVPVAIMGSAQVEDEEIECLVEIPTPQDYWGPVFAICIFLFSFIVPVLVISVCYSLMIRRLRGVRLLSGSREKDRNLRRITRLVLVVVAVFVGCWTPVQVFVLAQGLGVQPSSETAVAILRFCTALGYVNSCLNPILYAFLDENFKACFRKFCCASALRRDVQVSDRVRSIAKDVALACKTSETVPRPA

SMILES | IC50
CN1CC2(CCN(CC3Cc4cccc(O)c4NC3=O)CC2)c2ccccc21 (centres unmarked) [Example 31, 8-Hydroxy-3-[(1-methyl-1,2-dihydro-1′H-spiro[indole-3,4′-piperidin]-1′-yl)methyl]-3,4-dihydroquinolin-2(1H)-one] | 13 nM
O=C1COc2cccc3c2N1CC(CN1CCC2(CCc4ccccc42)CC1)C3 (centres unmarked) [Example 20, 6-(2,3-Dihydro-1′H-spiro[indene-1,4′piperidin]-1′-ylmethyl)-6,7-dihydro-5H-[1,4]oxazino[2,3,4-ij]quinolin-3(2H)-one] | 13 nM
